Measurements from patent US9963442B2, “Pyridones as herbicides” (E I DU PONT DE NEMOURS AND COMPANY, priority 2014, dated 2018).

Key:
Type in all cases: in vivo
[1] = tested on: oilseed rape (Brassica napus); assay: Test C postemergence; conditions: scale 0 to 100, 0 is no effect, 100 is complete control
Description: (§1) Seeds of plant species selected from blackgrass (Alopecurus myosuroides), Italian ryegrass (Lolium multiflorum), winter wheat (Triticum aestivum), galium (catchweed bedstraw, Galium aparine), corn (Zea mays), large (Lg) crabgrass (Digitaria sanguinalis), giant foxtail (Setaria faberii), johnsongrass (Sorghum halepense), lambsquarters (Chenopodium album), morningglory (Ipomoea coccinea), yellow nutsedge (Cyperus esculentus), pigweed (Amaranthus retroflexus), ragweed (common ragweed, Ambrosia elatior), soybean (Glycine max), barnyardgrass (Echinochloa crus-galli), oilseed rape (Brassica napus), waterhemp (common waterhemp, Amaranthus rudis), and velvetleaf (Abutilon theophrasti) were planted into a blend of loam soil and sand and treated preemergence with test chemicals formulated in a non-phytotoxic solvent mixture which included a surfactant. At the same time, plants selected from these crop and weed species and also chickweed (common chickweed, Stellaria media), kochia (Kochia scoparia), and wild oat (Avena fatua), were planted in pots containing Sunshine Redi-Earth® planting medium comprising spaghnum peat moss, vermiculite, starter nutrients and dolomitic limestone and treated with postemergence applications of test chemicals formulated in the same manner. Plants ranged in height from 2 to 18 cm (1- to 4-leaf stage) for postemergence treatments. Treated plants and controls were maintained in a greenhouse for 13 to 15 days, after which time all species were compared to controls and visually evaluated. Plant response ratings, summarized in Table C, are based on a scale of 0 to 100 where 0 is no effect and 100 is complete control. A dash (-) response means no test result.

corn (Zea mays) = assay: Test C postemergence; conditions: scale 0 to 100, 0 is no effect, 100 is complete control
Description: as §1

[2] = tested on: morningglory (Ipomoea coccinea); assay: Test C postemergence; conditions: scale 0 to 100, 0 is no effect, 100 is complete control
Description: as §1

[3] = tested on: Italian ryegrass (Lolium multiflorum); assay: Test C postemergence; conditions: scale 0 to 100, 0 is no effect, 100 is complete control
Description: as §1

[4] = tested on: pigweed (Amaranthus retroflexus); assay: Test C postemergence; conditions: scale 0 to 100, 0 is no effect, 100 is complete control
Description: as §1

[5] = tested on: giant foxtail (Setaria faberii); assay: Test C postemergence; conditions: scale 0 to 100, 0 is no effect, 100 is complete control
Description: as §1

kochia (Kochia scoparia) [6] = assay: Test C postemergence; conditions: scale 0 to 100, 0 is no effect, 100 is complete control
Description: as §1

[7] = tested on: blackgrass (Alopecurus myosuroides); assay: Test C postemergence; conditions: scale 0 to 100, 0 is no effect, 100 is complete control
Description: as §1

wild oat (Avena fatua) = assay: Test C postemergence; conditions: scale 0 to 100, 0 is no effect, 100 is complete control
Description: as §1

[8] = tested on: winter wheat (Triticum aestivum); assay: Test C postemergence; conditions: scale 0 to 100, 0 is no effect, 100 is complete control
Description: as §1

[9] = tested on: velvetleaf (Abutilon theophrasti); assay: Test C postemergence; conditions: scale 0 to 100, 0 is no effect, 100 is complete control
Description: as §1

[10] = tested on: yellow nutsedge (Cyperus esculentus); assay: Test C postemergence; conditions: scale 0 to 100, 0 is no effect, 100 is complete control
Description: as §1

[11] = tested on: chickweed (common chickweed, Stellaria media); assay: Test C postemergence; conditions: scale 0 to 100, 0 is no effect, 100 is complete control
Description: as §1

[12] = tested on: waterhemp (common waterhemp, Amaranthus rudis); assay: Test C postemergence; conditions: scale 0 to 100, 0 is no effect, 100 is complete control
Description: as §1

[13] = tested on: barnyardgrass (Echinochloa crus-galli); assay: Test C postemergence; conditions: scale 0 to 100, 0 is no effect, 100 is complete control
Description: as §1

[14] = tested on: Italian ryegrass (Lolium multiflorum); assay: Test A preemergence, directed soil spray; conditions: approx. 10 days
In short: (§2)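 Seeds sown in loam–sand blend received a directed soil spray preemergence; plants at 2–10 cm, one- to two-leaf stage, were sprayed postemergence. Compounds in non-phytotoxic solvent with surfactant. After about 10 days in greenhouse, injury rated visually versus untreated controls, 0 (no effect) to 100 (complete control).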

[15] = tested on: pigweed (Amaranthus retroflexus); assay: Test A preemergence, directed soil spray; conditions: approx. 10 days
In short: as §2

[16] = tested on: giant foxtail (Setaria faberii); assay: Test A preemergence, directed soil spray; conditions: approx. 10 days
In short: as §2

kochia (Kochia scoparia) [17] = assay: Test A preemergence, directed soil spray; conditions: approx. 10 days
In short: as §2

[18] = tested on: ragweed (common ragweed, Ambrosia elatior); assay: Test A preemergence, directed soil spray; conditions: approx. 10 days
In short: as §2

[19] = tested on: barnyardgrass (Echinochloa crus-galli); assay: Test A preemergence, directed soil spray; conditions: approx. 10 days
In short: as §2

O=c1cccc(Oc2ncc(Cl)cn2)n1-c1ccc(C(F)(F)F)cn1 [Compound 7]
Plant response rating, Oilseed Rape ([1]; 16 g ai/ha): 20 | Plant response rating, Oilseed Rape ([1]; 31 g ai/ha): 35 | Plant response rating, Oilseed Rape ([1]; 62 g ai/ha): 40 | Plant response rating, Oilseed Rape ([1]; 125 g ai/ha): 35 | Plant response rating, Corn (corn (Zea mays); 16 g ai/ha): 10 | Plant response rating, Corn (corn (Zea mays); 31 g ai/ha): 10 | Plant response rating, Corn (corn (Zea mays); 62 g ai/ha): 20 | Plant response rating, Corn (corn (Zea mays); 125 g ai/ha): 15 | Plant response rating, Morningglory ([2]; 16 g ai/ha): 20 | Plant response rating, Morningglory ([2]; 31 g ai/ha): 35 | Plant response rating, Morningglory ([2]; 62 g ai/ha): 40 | Plant response rating, Morningglory ([2]; 125 g ai/ha): 45 | Plant response rating, Ryegrass, Italian ([3]; 16 g ai/ha): 0 | Plant response rating, Ryegrass, Italian ([3]; 31 g ai/ha): 5 | Plant response rating, Ryegrass, Italian ([3]; 62 g ai/ha): 5 | Plant response rating, Ryegrass, Italian ([3]; 125 g ai/ha): 10 | Plant response rating, Pigweed ([4]; 16 g ai/ha): 70 | Plant response rating, Pigweed ([4]; 31 g ai/ha): 65 | Plant response rating, Pigweed ([4]; 62 g ai/ha): 85 | Plant response rating, Pigweed ([4]; 125 g ai/ha): 80 | Plant response rating, Foxtail, Giant ([5]; 16 g ai/ha): 10 | Plant response rating, Foxtail, Giant ([5]; 31 g ai/ha): 10 | Plant response rating, Foxtail, Giant ([5]; 62 g ai/ha): 15 | Plant response rating, Foxtail, Giant ([5]; 125 g ai/ha): 20 | Plant response rating, Kochia (kochia (Kochia scoparia) [6]; 16 g ai/ha): 10 | Plant response rating, Kochia (kochia (Kochia scoparia) [6]; 31 g ai/ha): 50 | Plant response rating, Kochia (kochia (Kochia scoparia) [6]; 62 g ai/ha): 70 | Plant response rating, Kochia (kochia (Kochia scoparia) [6]; 125 g ai/ha): 85 | Plant response rating, Blackgrass ([7]; 16 g ai/ha): 5 | Plant response rating, Blackgrass ([7]; 31 g ai/ha): 5 | Plant response rating, Blackgrass ([7]; 62 g ai/ha): 10 | Plant response rating, Blackgrass ([7]; 125 g ai/ha): 20 | Plant response rating, Oat, Wild (wild oat (Avena fatua); 16 g ai/ha): 0 | Plant response rating, Oat, Wild (wild oat (Avena fatua); 31 g ai/ha): 0 | Plant response rating, Oat, Wild (wild oat (Avena fatua); 62 g ai/ha): 5 | Plant response rating, Oat, Wild (wild oat (Avena fatua); 125 g ai/ha): 5 | Plant response rating, Wheat ([8]; 16 g ai/ha): 0 | Plant response rating, Wheat ([8]; 31 g ai/ha): 0 | Plant response rating, Wheat ([8]; 62 g ai/ha): 0 | Plant response rating, Wheat ([8]; 125 g ai/ha): 0 | Plant response rating, Velvetleaf ([9]; 16 g ai/ha): 25 | Plant response rating, Velvetleaf ([9]; 31 g ai/ha): 35 | Plant response rating, Velvetleaf ([9]; 62 g ai/ha): 40 | Plant response rating, Velvetleaf ([9]; 125 g ai/ha): 65 | Plant response rating, Nutsedge, Yellow ([10]; 16 g ai/ha): 0 | Plant response rating, Nutsedge, Yellow ([10]; 31 g ai/ha): 5 | Plant response rating, Nutsedge, Yellow ([10]; 62 g ai/ha): 5 | Plant response rating, Nutsedge, Yellow ([10]; 125 g ai/ha): 10 | Plant response rating, Chickweed ([11]; 16 g ai/ha): 0 | Plant response rating, Chickweed ([11]; 31 g ai/ha): 20 | Plant response rating, Chickweed ([11]; 62 g ai/ha): 35 | Plant response rating, Chickweed ([11]; 125 g ai/ha): 55 | Plant response rating, Waterhemp ([12]; 16 g ai/ha): 60 | Plant response rating, Waterhemp ([12]; 31 g ai/ha): 70 | Plant response rating, Waterhemp ([12]; 62 g ai/ha): 85 | Plant response rating, Waterhemp ([12]; 125 g ai/ha): 85 | Plant response rating, Barnyardgrass ([13]; 16 g ai/ha): 5 | Plant response rating, Barnyardgrass ([13]; 31 g ai/ha): 5 | Plant response rating, Barnyardgrass ([13]; 62 g ai/ha): 5 | Plant response rating, Barnyardgrass ([13]; 125 g ai/ha): 10 | Plant response rating (0 to 100 scale, 0 no effect, 100 complete control), Ryegrass, Italian ([14]; 31 g ai/ha): 10 | Plant response rating (0 to 100 scale, 0 no effect, 100 complete control), Ryegrass, Italian ([14]; 125 g ai/ha): 60 | Plant response rating (0 to 100 scale, 0 no effect, 100 complete control), Pigweed ([15]; 31 g ai/ha): 100 | Plant response rating (0 to 100 scale, 0 no effect, 100 complete control), Pigweed ([15]; 125 g ai/ha): 100 | Plant response rating (0 to 100 scale, 0 no effect, 100 complete control), Foxtail, Giant ([16]; 31 g ai/ha): 60 | Plant response rating (0 to 100 scale, 0 no effect, 100 complete control), Foxtail, Giant ([16]; 125 g ai/ha): 100 | Plant response rating (0 to 100 scale, 0 no effect, 100 complete control), Kochia (kochia (Kochia scoparia) [17]; 31 g ai/ha): 30 | Plant response rating (0 to 100 scale, 0 no effect, 100 complete control), Kochia (kochia (Kochia scoparia) [17]; 125 g ai/ha): 70 | Plant response rating (0 to 100 scale, 0 no effect, 100 complete control), Ragweed ([18]; 31 g ai/ha): 10 | Plant response rating (0 to 100 scale, 0 no effect, 100 complete control), Ragweed ([18]; 125 g ai/ha): 70 | Plant response rating (0 to 100 scale, 0 no effect, 100 complete control), Barnyardgrass ([19]; 31 g ai/ha): 20 | Plant response rating (0 to 100 scale, 0 no effect, 100 complete control), Barnyardgrass ([19]; 125 g ai/ha): 70
